Experimental data from the supplement of paper PMC10307832.

Experiments:
Test in all cases: relative viability (nuclei count vs DMSO), 5 days (fraction); higher = more cells survive
Bexarotene + Pictilisib = compound: C=C(c1ccc(C(=O)O)cc1)c1cc2c(cc1C)C(C)(C)CCC2(C)C [Bexarotene] + CS(=O)(=O)N1CCN(Cc2cc3nc(-c4cccc5[nH]ncc45)nc(N4CCOCC4)c3s2)CC1 [Pictilisib] (partner 1 µM)
In short: (§1)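 Each reported value is a median over duplicate plates. It expresses relative viability: treated-well nuclei count divided by vehicle-well nuclei count. Lung cancer cell lines in 1536-well plates were dosed by pin tool a day after seeding, alone with one drug or with a fixed anchor-drug dose plus five library-drug doses (not always all listed) in √10 steps, and nuclei were counted after 5 days.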

Bexarotene + Linsitinib = compound: C=C(c1ccc(C(=O)O)cc1)c1cc2c(cc1C)C(C)(C)CCC2(C)C [Bexarotene] + C[C@]1(O)C[C@@H](c2nc(-c3ccc4ccc(-c5ccccc5)nc4c3)c3c(N)nccn32)C1 [Linsitinib] (partner 1 µM)
In short: as §1

Bexarotene + Alpelisib = compound: C=C(c1ccc(C(=O)O)cc1)c1cc2c(cc1C)C(C)(C)CCC2(C)C [Bexarotene] + Cc1nc(NC(=O)N2CCC[C@H]2C(N)=O)sc1-c1ccnc(C(C)(C)C(F)(F)F)c1 [Alpelisib] (partner 2 µM)
In short: as §1

Bexarotene + Decitabine = compound: C=C(c1ccc(C(=O)O)cc1)c1cc2c(cc1C)C(C)(C)CCC2(C)C [Bexarotene] + Nc1ncn([C@H]2C[C@H](O)[C@@H](CO)O2)c(=O)n1 [Decitabine] (partner 2 µM)
In short: as §1

Cell Line | relative viability (Bexarotene + Pictilisib; first compound 0.08 µM) | relative viability (Bexarotene + Pictilisib; first compound 0.253 µM) | relative viability (Bexarotene + Pictilisib; first compound 0.8 µM) | relative viability (Bexarotene + Pictilisib; first compound 2.53 µM) | relative viability (Bexarotene + Pictilisib; first compound 8 µM) | relative viability (Bexarotene + Linsitinib; first compound 0.08 µM) | relative viability (Bexarotene + Linsitinib; first compound 0.253 µM) | relative viability (Bexarotene + Linsitinib; first compound 0.8 µM) | relative viability (Bexarotene + Linsitinib; first compound 2.53 µM) | relative viability (Bexarotene + Linsitinib; first compound 8 µM) | relative viability (Bexarotene + Alpelisib; first compound 0.08 µM) | relative viability (Bexarotene + Alpelisib; first compound 0.253 µM) | relative viability (Bexarotene + Alpelisib; first compound 0.8 µM) | relative viability (Bexarotene + Alpelisib; first compound 2.53 µM) | relative viability (Bexarotene + Alpelisib; first compound 8 µM) | relative viability (Bexarotene + Decitabine; first compound 0.08 µM) | relative viability (Bexarotene + Decitabine; first compound 0.253 µM) | relative viability (Bexarotene + Decitabine; first compound 0.8 µM) | relative viability (Bexarotene + Decitabine; first compound 2.53 µM) | relative viability (Bexarotene + Decitabine; first compound 8 µM)
NCI-H1944 | 0.388 | 0.391 | 0.336 | 0.374 | 0.37 | 1.5 | 1.36 | 1.4 | 1.41 | 1.19 | 1.08 | 1.05 | 0.913 | 0.954 | 0.867 | 0.493 | 0.472 | 0.504 | 0.464 | 0.383
HARA | 0.407 | 0.317 | 0.377 | 0.32 | 0.41 | 0.971 | 0.939 | 0.709 | 0.748 | 0.648 | 0.705 | 0.714 | 0.456 | 0.52 | 0.597 | 0.618 | 0.637 | 0.535 | 0.633 | 0.514
NCI-H2126 | 0.558 | 0.512 | 0.462 | 0.514 | 0.519 | 0.8 | 0.762 | 0.789 | 0.791 | 0.753 | 0.8 | 0.81 | 0.698 | 0.826 | 0.847 | 0.631 | 0.696 | 0.575 | 0.571 | 0.554
LXF-289 | 0.798 | 0.68 | 0.711 | 0.581 | 0.604 | 1.06 | 1.11 | 1.04 | 1.11 | 1.01 | 1.04 | 1.1 | 1.06 | 1.04 | 0.983 | 0.381 | 0.3 | 0.293 | 0.313 | 0.323
NCI-H460 | 0.471 | 0.343 | 0.396 | 0.302 | 0.371 | 0.94 | 0.865 | 0.757 | 0.66 | 0.744 | 0.654 | 0.733 | 0.539 | 0.596 | 0.519 | 0.581 | 0.505 | 0.448 | 0.499 | 0.381
NCI-H1395 | 0.678 | 0.603 | 0.571 | 0.807 | 0.762 | 1.15 | 1.08 | 1.23 | 1.07 | 1.11 | 1.18 | 1.06 | 0.93 | 1.03 | 1.08 | 0.801 | 0.686 | 0.72 | 0.713 | 0.731
NCI-H2009 | 0.96 | 0.959 | 0.723 | 0.818 | 0.8 | 1.33 | 1.36 | 1.13 | 1.18 | 1.13 | 1.27 | 1.23 | 1.11 | 1.17 | 1.06 | 0.404 | 0.394 | 0.373 | 0.404 | 0.364
